This passage reports Drug uptake and Ratio results from ChEMBL document CHEMBL1932963, “Mitochondrial targeting of a cationic amphiphilic polyproline helix” (Bioorg Med Chem Lett, 2012).

Data set [1] can be described thus: Cellular uptake in human HeLa cell lysosomes using LysoTracker dye at 5 uM after 1 hr by confocal microscopy in presence of FCCP. The class given is ADME, cell-based, Lysosome.
Data set [2] concerns HeLa. As to the kind of experiment: Cellular uptake in human HeLa cells at 5 uM after 4 hrs by flow cytometry relative control. The class given is ADME, cell-based. On the technique in general: A flow cytometer gives signals particle by particle.
Data set [3] can be described thus: Cellular uptake in human HeLa cell mitochondria using mitotracker dye at 5 uM after 30 mins. The class given is ADME. To be noted: 0.5 h.
Data set [4] relates to HeLa. The data set is described as follows: Cellular uptake in human HeLa cells assessed as increase in cellular fluorescence at 5 uM after 4 hrs by flow cytometry relative to control. The class given is ADME, cell-based.
A short description of data set [5]: Cellular uptake in human HeLa cell mitochondria using mitotracker dye at 5 uM after 1 hr by confocal microscopy in presence of FCCP. It counts as ADME.
Data set [6] is described as follows: Cellular uptake in human HeLa cell mitochondria using mitotracker dye at 1 uM after 4 hrs. The class given is ADME.
Data set [7] in a line: Cellular uptake in human HeLa cell mitochondria using mitotracker dye at 5 uM after 4 hrs. It counts as ADME.
The nature of data set [8]: Cellular uptake in human HeLa cell cytosol at 5 uM after 1 hr by confocal microscopy in presence of FCCP. It counts as ADME, cell-based.
The subject of data set [9] is HeLa. The data set is described as follows: Cellular uptake in human HeLa cells after 4 hrs by flow cytometry. It counts as ADME, cell-based.
Data set [10] can be described thus: Cellular uptake in human HeLa cell lysosomes using LysoTracker dye at 1 uM after 4 hrs. It counts as ADME, cell-based, Lysosome.
The subject of data set [11] is HeLa. The data set is described as follows: Cellular uptake in human HeLa cells up to 2.5 uM after 4 hrs by flow cytometry. It counts as ADME, cell-based.

In the case of `CC(C)CO[C@H]1C[C@H](C(=O)N2C[C@@H](OCCCNC(=N)N)C[C@@H]2C(=O)N2C[C@@H](OCCCNC(=N)N)C[C@@H]2C(=O)N2C[C@@H](OCC(C)C)C[C@@H]2C(=O)N2C[C@@H](OCCCNC(=N)N)C[C@@H]2C(=O)N2C[C@@H](OCCCNC(=N)N)C[C@@H]2C(=O)N2C[C@@H](OCC(C)C)C[C@@H]2C(N)=O)N(C[C@H]2C[C@H](OCCCNC(=N)N)CN2C(=O)[C@H]2C[C@H](OCCCNC(=N)N)CN2C(=O)[C@H]2C[C@H](OCC(C)C)CN2C(=O)[C@H]2C[C@H](OCCCNC(=N)N)CN2C(=O)[C@H]2C[C@H](OCCCNC(=N)N)CN2C(=O)[C@H]2C[C@H](OCC(C)C)CN2C(=O)CNC(=O)c2cccc(-c3c4ccc(=O)cc-4oc4cc(O)ccc34)c2C(=O)O)C1`, the Drug uptake result is “Active” in data set [1]; “Active” in data set [3]; “Not Active” in data set [5]; “Active” in data set [6]; “Active” in [7]; “Active” in data set [8]. Also, the Drug uptake entry with HeLa [9] is given as “Dose-dependent effect”; in data set [10] it was “Active”. The values for the Ratio in the data set with HeLa [2] and in the data set on HeLa [4] were 7.5 and 14, respectively.
In the case of `N=C(N)NCCC[C@H](NC(=O)[C@H](CCCNC(=N)N)NC(=O)[C@H](CCCNC(=N)N)NC(=O)[C@H](CCC(N)=O)NC(=O)[C@H](CCCNC(=N)N)NC(=O)[C@H](CCCNC(=N)N)NC(=O)[C@H](CCCCN)NC(=O)[C@H](CCCCN)NC(=O)[C@H](CCCNC(=N)N)NC(=O)CNC(=O)[C@H](Cc1ccc(O)cc1)NC(=O)c1ccccc1-c1c2ccc(=O)cc-2oc2cc(O)ccc12)C(N)=O`, in the data set with HeLa [11], the Drug uptake entry is recorded as “Not Active”.
